{
  "source": "patent US6632975B1",
  "about": "“Method for the production of in vivo model of hepatocellular carcinoma without lung metastasis” (Kabushiki Kaisha Daiyu-Kai Institute of Medical Science, priority 2000, dated 2003)",
  "tested_on": "F344 Fisher rats",
  "assay": "Production of in vivo lung metastatic hepatoma model: incidences of hepatocellular carcinoma and lung metastasis, survival (Example 1)",
  "design": "species or system rat",
  "description": "Animals used in this example were F344 Fisher rats (purchased from Charles River Japan Inc.).\nDiethylnitrosoamine (hereinafter, referred to as “DEN”) and nitrosomorpholine (hereinafter, referred to as “NMOR”) were purchased from Tokyo Kasei Kogyo Co., Ltd.\nDEN was diluted with physiological saline, and intraperitoneally injected in animals at a dose of 100 mg/kg body weight, or it was diluted with tap water to make the concentration of 50 ppm and administered via drinking water feeding bottle. NMOR was diluted with tap water to make the concentration of 120 ppm, and administered via a drinking water feeding bottle.\nAnimals were divided into four groups and treated as follows: Animals of the first group were given 50 ppm of DEN in drinking water for 16 weeks, and were sacrificed and subjected to autopsy in week 16. Animals of the second group were given 100 mg/kg body weight of DEN via intraperitoneal injection at the start of the experiment, and were sacrificed and subjected to autopsy in week 22. Animals of the third group were given 120 ppm of NMOR in drinking water for 22 weeks, and were sacrificed and subjected to autopsy in week 22. Animals of the fourth group were given 100 mg/kg body weight of DEN via intraperitoneal injection at the start of the experiment were given NMOR from the start to week 22 of the experiment, and were sacrificed and subjected to autopsy in week 22.\nLiver and lung as well as other tissues were collected, fixed in formalin and stained with hematoxylin-eosin by the standard method to prepare specimens. Specimens were microscopically examined for presence of hepatocellular carcinoma in the liver and metastatic lesion in the lung to determine incidences of hepatocellular carcinoma and lung metastasis, which are shown in FIG. 1.",
  "key": {"[1]": {"details": "DEN 50 ppm in drinking water for 16 weeks, autopsy week 16"}, "[2]": {"details": "NMOR 120 ppm in drinking water for 22 weeks, autopsy week 22"}},
  "data": [
    {"molecule": "CCN(CC)N=O", "note": "[DEN, Diethylnitrosoamine]", "values": [
      {"measurement": "incidence of hepatoma", "setting": "[1]", "value": 100, "unit": "%"},
      {"measurement": "lung metastasis", "setting": "[1]", "value": "no lung metastasis was observed"}
    ]},
    {"molecule": "O=NN1CCOCC1", "note": "[NMOR, nitrosomorpholine]", "values": [
      {"measurement": "incidence of hepatoma", "setting": "[2]", "value": 100, "unit": "%"},
      {"measurement": "lung metastasis (animals affected)", "setting": "[2]", "value": "only one animal"}
    ]}
  ]
}
